The source of these data is PMC12345401, “The mRNA Translation Inhibitor Vioprolide A Prevents Inflammatory Pain‐Like Behaviour With Limited Action on Already Established Pain‐Like Behaviour in Mice” (European Journal of Pain (London, England), 2025).

One data set has as its system mice. The following applies: cited from earlier work; for cytokines (interleukin-1β, interleukin-6, tumour necrosis factor) in peritoneal lavage after zymosan-induced peritonitis: Stark et al. [2019].
Another data set concerns rodents. On the set-up: method as in earlier work. As to conditions: local treatment, ref Geranton et al. [2009], Jimenez-Diaz et al. [2008], Price et al. [2007]; cited from earlier work.
Data set [1] deals with C57BL/6N mice. In words: CFA-induced paw inflammation, mechanical hypersensitivity. The data set is classed as in vivo, mouse. How it is done: (§1) Paw withdrawal latencies following mechanical stimulation were assessed using a dynamic plantar aesthesiometer (Ugo Basile, Gemonio, Italy), which compresses a stainless‐steel probe (0.5‐mm diameter) against the plantar surface of the hindpaw through a wire mesh bottom on which the mice are placed. The applied force was increased from 0 to 5 g over a period of 10 s (0.5 g/s ramp) and then remained constant at 5 g for an additional 10 s (total cutoff time, 20 s). An unequivocal paw withdrawal was evaluated as a response. The paw withdrawal latency was calculated as the average of three to four consecutive exposures with at least 20 s in between. The area under the curve was calculated using Prism 10 (Graph Pad) software.
Paw inflammation was induced by injecting 20 μL of complete Freund's adjuvant (CFA; containing 1 mg/mL heat‐killed Mycobacterium tuberculosis in paraffin oil 85% and mannide monooleate 15%; Sigma‐Aldrich, St. Louis, USA) into the plantar side of a hindpaw (Petersen et al. [2019]). Vioprolide A (0.3, 1 or 3 mg/kg), diclofenac (50 mg/kg; Sigma‐Aldrich, St. Louis, USA), or vehicle (1% DMSO in 0.9% NaCl) was i.p. administered in a volume of 100 μL 24 h after the intraplantar CFA injection. Paw withdrawal latencies following mechanical stimulation were assessed using a dynamic plantar aesthesiometer as described above.

Data set [2] relates to C57BL/6N mice. Kind of data set: Zymosan-induced paw inflammation, mechanical hypersensitivity (dynamic plantar aesthesiometer). The format is in vivo, mouse. The following applies: 0.3, 1 and 3 mg/kg s.c. 16 h prior to intraplantar zymosan; 1-72 h post-zymosan; vs vehicle. How it is done:
(§2) Paw inflammation was induced by injecting 20 μL of a zymosan A suspension (5 mg/mL in PBS without Ca^2+/Mg^2+, pH 7.4; Sigma‐Aldrich, St. Louis, USA) into the plantar side of a hindpaw (Petersen et al. [2019]). Vioprolide A (0.3, 1 or 3 mg/kg) or vehicle (1% DMSO in 0.9% NaCl) was s.c. administered into the neck in a volume of 100 μL 16 h prior to the intraplantar zymosan injection.
as §1

Data set [3] concerns C57BL/6N mice. In words: Von Frey filament test in naive mice. The data set is classed as in vivo, mouse. As to conditions: 3 mg/kg s.c. into the neck, 22 and 46 h after administration. How it is done:
Immediately after the vertical pole test, mice were placed on a wire‐mesh platform in Plexiglas cylinders and habituated for approximately 1 h. Von Frey filaments ranging from 0.04 to 4 g (Ugo Basile, Gemonio, Italy) were applied to the plantar surface of a hind paw for 1 s with a force causing the filament to bend. Starting with the lowest force, each filament was applied 10 times with a break of at least 2 min. The number of paw withdrawal reactions per 10 applications was used to calculate the withdrawal frequency (Beaulieu‐Laroche et al. [2020]). Measurements were performed at baseline and 22 and 46 h after vioprolide A or vehicle administration.

Data set [4] deals with C57BL/6N mice. In words: Spared nerve injury (SNI)-induced neuropathy, mechanical hypersensitivity. The data set is classed as in vivo, mouse. The following applies: 0.3 mg/kg i.p. on Day 14 after SNI; observed over 48 h. Here is the method:
as §1
The SNI model was performed as described previously (Bourquin et al. [2006]; Petersen et al. [2019]). Briefly, under isoflurane anaesthesia the tibial and common peroneal branches of the sciatic nerve were ligated and dissected distally. The sural nerve remained intact and the mice developed hypersensitivity in the lateral area of the hindpaw. Vioprolide A (0.3 mg/kg) or vehicle (1% DMSO in 0.9% NaCl) were i.p. administered in a volume of 100 μL 14 days after SNI. Paw withdrawal latencies following mechanical stimulation were assessed using a dynamic plantar aesthesiometer as described above.

Data set [5] concerns C57BL/6N mice. In words: Zymosan-induced paw oedema (plethysmometer). The format is in vivo, mouse. The following applies: 0.3, 1 and 3 mg/kg s.c. 16 h prior to intraplantar zymosan; vs vehicle. Here is the method: as §2
The volume of the hindpaw was measured using a plethysmometer (Ugo Basile, Gemonio, Italy) according to the manufacturer's instructions. The dipping solution contained 0.8–0.9 g/L NaCl in distilled water and 2–3 mL/L wetting compound (Ugo Basile, Gemonio, Italy) to reduce drop and meniscus build‐up. The paw volume was calculated as a mean of three measurements. The area under the curve was calculated using Prism 10 (Graph Pad) software.

Data set [6] relates to C57BL/6N mice. In words: Vertical pole test. The data set is classed as in vivo, mouse. As to conditions: 3 mg/kg s.c. into the neck; naive mice; 20 and 44 h after administration. How it is done:
(§3) For the accelerating rotarod test, mice were placed on a rotarod treadmill (Ugo Basile, Gemonio, Italy) at increasing speed (4–40 rpm over 300 s; cutoff time 300 s) and trained for several consecutive days. Only mice that reached 300 s without falling off during the training sessions were included in the experiment. In the vertical pole test, mice were placed with the head pointing upward on a vertical pole and the time needed to reach the ground was recorded (cutoff time 20 s). After baseline measurements, vioprolide A (3 mg/kg) or vehicle (1% DMSO in 0.9% NaCl) was s.c. administered into the neck and the accelerating rotarod test immediately followed by the vertical pole test was performed 20 and 44 h after drug administration. Three trials per mouse were used for evaluation (Balzulat et al. [2024]).

Data set [7] in a line: Pharmacokinetic profile, brain levels (LC-MS). The format is in vivo. The following applies: 0.3 mg/kg i.p., mouse brain, over 8 h. Here is the method:
(§4) The pharmacokinetic profile of vioprolide A was determined by staff of Pharmacelsus (Saarbrücken, Germany) in male C57BL/6 mice as described (Balzulat et al. [2024]). A single dose of 0.3 mg/kg vioprolide A (in NaCl 0.9% + 1% DMSO) was i.p. administered, and two blood samples were obtained from each animal retrobulbarly under short isoflurane anaesthesia (at 0.25 and 0.5 h from 3 mice; at 1 and 2 h from 3 mice; and at 4 and 8 h from 3 mice). Immediately after the last blood sample was taken, the animal was euthanised by cervical dislocation, and the brain was collected. Plasma and brain concentrations of vioprolide A were determined by LC–MS analysis. The pharmacokinetic analysis was performed applying a non‐compartment model using the Kinetica 5.0 software (Thermo Scientific, Waltham, USA). All given parameters were obtained by trapezoid area calculation.

Data set [8] is described as follows: Pharmacokinetic profile, plasma (LC-MS). The format is in vivo. The following applies: 0.3 mg/kg i.p. How it is done:
as §4

The test system of data set [9] is C57BL/6N mice. Kind of data set: Zymosan-induced peritonitis, dynamic weight bearing. The data set is classed as in vivo, mouse. As to conditions: 0.3 mg/kg s.c. into the neck 16 h prior to i.p. zymosan; DWB 5 h after zymosan; vs vehicle. How it is done: Acute peritonitis was induced by a single intraperitoneal (i.p.) injection (0.5 mL) of a zymosan A suspension (2 mg/mL in phosphate‐buffered saline (PBS) without Ca^2+/Mg^2+; Sigma‐Aldrich, Steinheim, Germany and Gibco, Darmstadt, Germany) as described (Stark et al. [2019]). Vioprolide A (0.3 mg/kg; kindly provided by the group of Prof. Rolf Müller, Helmholtz Institute for Pharmaceutical Research Saarland (HIPS), Helmholtz Center for Infection Research and Department of Pharmacy, Saarland University, Saarbrücken, Germany) or vehicle (1% DMSO in 0.9% NaCl) was subcutaneously (s.c.) injected into the neck (to prevent direct interaction with the i.p. applied zymosan) in a volume of 100 μL 16 h prior to the zymosan injection. An automated dynamic weight bearing (DWB) device (Bioseb, Boulogne, France) was used to assess the pain‐like behaviour during zymosan‐induced peritonitis. […] The recorded weight distribution was analysed using the DWB software as described (Laux‐Biehlmann et al. [2016]; Stark et al. [2019]). A zone was considered valid when the following parameters were detected: ≥ 0.8 g on one captor with a minimum of two adjacent captors recording ≥ 1.0 g. A time segment was considered valid if ≥ 3 stable pictures were detected (Laux‐Biehlmann et al. [2016]; Stark et al. [2019]). […]

In data set [10] the test system is C57BL/6N mice. In words: Accelerating rotarod test. The following applies: 3 mg/kg s.c. into the neck; naive mice; 20 and 44 h after administration. The format is in vivo, mouse. Here is the method:
as §3

In data set [11] the test system is C57BL/6N mice. Set-up: method as in Metzner et al. [2021]. As to conditions: positive control in a previous study; ref Metzner et al. [2021]; cited from earlier work.
Where [12] appears, read: male, C57BL/6, ip, mouse plasma.

Each structure is given as a SMILES string. “Also recorded” adds a separate entry of the source.

With `O=C1N[C@@H]2C(=C[C@H](O)[C@@H](O)[C@H]2O)c2cc3c(c(O)c21)OCO3` [narciclasine], the “cytokines (interleukin-1β, interleukin-6, tumour necrosis factor) in peritoneal lavage after zymosan-induced peritonitis” value in the data set with mice (ref Burgers et al. [2024]) was “reduced the amount of cytokines”. Moreover, the “visceral pain behaviour in murine peritonitis model” value in the data set on mice (ref Stark et al. [2019]) is on record as “significantly inhibited visceral pain behaviour”.
As to `CO[C@H]1C[C@@H]2CC[C@@H](C)[C@@](O)(O2)C(=O)C(=O)N2CCCC[C@H]2C(=O)O[C@H]([C@H](C)C[C@@H]2CC[C@@H](O)[C@H](OC)C2)CC(=O)[C@H](C)/C=C(\C)[C@@H](O)[C@@H](OC)C(=O)[C@H](C)C[C@H](C)/C=C/C=C/C=C/1C` [rapamycin], the persistent pain-like behaviour entry in the data set with rodents is reported as “attenuated persistent pain‐like behaviour”.
Consider `COC(=O)C[C@](O)(CCCC(C)(C)O)C(=O)O[C@@H]1C(OC)=C[C@]23CCCN2CCc2cc4c(cc2[C@H]13)OCO4` [homoharringtonine], for which, in the data set on mice (ref Burgers et al. [2024]), the “cytokines (interleukin-1β, interleukin-6, tumour necrosis factor) in peritoneal lavage after zymosan-induced peritonitis” value was “reduced the amount of cytokines” and the “pain behaviour during zymosan-induced peritonitis” value is listed as “ameliorated the pain behaviour”.
Turning to `O=C(O)Cc1ccccc1Nc1c(Cl)cccc1Cl` [diclofenac, reference compound], the “CFA-induced mechanical hypersensitivity (paw withdrawal latency)” value in the data set on C57BL/6N mice [1] (50 mg/kg i.p. 24 h after intraplantar CFA, positive control, statistical significance not reached) was “visibly attenuated”.
On to `C/C=C1/NC(=O)[C@@H]2CSC(=N2)[C@@H]2C[C@@H](C)N2C(=O)[C@@H](CC(C)C)NC(=O)[C@H](C)NC(=O)[C@@H](O)COC(=O)[C@H](C(C)C)N(C)C(=O)[C@H]([C@@H](C)O)NC(=O)[C@@H]2CCCCN2C1=O` [vioprolide A], for which the “zymosan-induced mechanical hypersensitivity (paw withdrawal latency, time course and AUC)” value with C57BL/6N mice [2] is listed as “significantly ameliorated; also recorded: significantly reduced”. Moreover, the “mechanical sensitivity, paw withdrawals to von Frey filaments” value with C57BL/6N mice [3] was “did not alter mechanical sensitivity”. Moreover, in the data set with C57BL/6N mice [4], the “SNI-induced mechanical hypersensitivity (paw withdrawal latency)” value is reported as “did not affect; also recorded: failed to affect the mechanical hypersensitivity”. The “CFA-induced mechanical hypersensitivity (paw withdrawal latency)” value in the data set with C57BL/6N mice [1] (0.3, 1 and 3 mg/kg i.p. 24 h after intraplantar CFA, observed over 24 h) is “failed to affect the mechanical hypersensitivity; also recorded: none of the applied doses of vioprolide A affected”. The “zymosan-induced paw edema (paw volume, time course and AUC)” value in the data set on C57BL/6N mice [5] was “decreased in a dose‐dependent manner; also recorded: significantly reduced”. For the same compound, the “motor function, vertical pole test” value in the data set on C57BL/6N mice [6] is listed as “did not affect; also recorded: did not impair motor function”. The brain level result in [7] is “not detected in the brain”. In [8] (mouse plasma), the “%AUCextra (extrapolated part of AUC0-inf)” value was 3.9%, the “t 1/2z (half-life of the terminal slope)” value was 1.0 h and the “t z (time of the last quantifiable sample)” value is listed as 4.0 h. Besides, the concentration at 4 h in data set [8] (male, C57BL/6, intraperitoneal, mouse plasma, read-out: C z (last analytically quantifiable concentration)) worked out at 0.1 ng/mL. Moreover, in data set [8] (setting [12]), the AUC(0-t) (usually the area under the concentration-time curve up to a stated or last time point) stood at 3.6 ng·h/mL; the highest concentration (Cmax) – broadly, the highest concentration seen after dosing – amounted to 7.8 ng/mL; the time to peak (Tmax) (in general, the time from dosing to the highest level) was 0.25 h. The AUC(0-inf) (commonly total exposure, with the tail of the curve extrapolated) in [8] (male, C57BL/6, ip, mouse plasma, extrapolated to infinity) was 3.8 ng·h/mL. The CL/F in [8] (male, C57BL/6, ip, mouse plasma, read-out: CL/f (total body clearance after extravascular administration) (converted)) is 1330 mL/min/kg. Also, the Vd/F in [8] (male, C57BL/6, ip, mouse plasma, read-out: V z/f (volume of distribution after extravascular administration)) came to 116 L/kg. In addition, the half-life in [8] (male, C57BL/6, mouse, plasma, ip, 0.3 mg/kg, read-out: t 1/2z (half-life of the terminal slope) (converted)) is about 1 h. Besides, the “zymosan-induced weight shift towards the frontpaws (visceral nociceptive behaviour)” value in the data set with C57BL/6N mice [9] is on record as “significantly ameliorated; also recorded: significantly lower”. Moreover, the “motor function, time on accelerating rotarod” value with C57BL/6N mice [10] is “did not affect the time spent on the rotarod; also recorded: did not impair motor function”.
In the case of `CC(C)C[C@H](CN)CC(=O)O` [pregabalin], the “neuropathic pain behaviour in SNI model” value with C57BL/6N mice [11] is “attenuated the neuropathic pain behaviour”.
